Data from patent US20260193227A1, “THERAPEUTIC COMPOUNDS AND METHODS” (UNIVERSITY OF IOWA RESEARCH FOUNDATION, priority 2022, published 2026).
“Also recorded” adds a separate entry of the source.

Legend:
Type in all cases: cell-based, human
EUFA423F HA cells [1] = assay: CellTiter-Glo cell viability, BRCA2-complemented cells; details: yes/no
Source text: (§1) Cell lines: EUFA423F cells that are derived from a Fanconi Anemia patient with complementation group D1 and have biallelic mutations (7691 insAT and 9900 insA) in BRCA2 that result in two different truncated forms of BRCA2 (Howlett N G, et al., Science (New York, NY). 2002; 297(5581):606-9) and its counterpart complemented with expression vector for full-length BRCA2 (EUFA HA) were a generous gift from Dr. Simon Powell, Molecular Biology Program, Radiation Oncology, Sloan-Kettering Cancer Center, New York, NY).
Cell proliferation assay: Selective toxicity of the compounds towards human BRCA2 deficient cells was tested in EUFA423F and its complement EUFA423F HA using CellTiter-Glo® Luminescent Cell Viability Assay (Promega, Madison, WI). The cell lines were maintained in DMEM (Gibco/ThermoFisher Scientific, Waltham, MA) supplemented with 10% FBS and 10 mM HEPES (Gibco/ThermoFisher Scientific, Waltham, MA). EUFA423F HA cells were routinely supplemented with G418 in order to maintain the BRCA2 expression plasmid. Both cell lines were seeded in sterile tissue culture treated, white opaque 384-well plates (Perkin Elmer Inc., Waltham, MA) 3000 cells/well for EUFA423F HA and 2500 cells/well for EUFA423F) and allowed to adhere for 24 hours. Compounds dissolved in DMSO were added in the concentration range of 0-100 μM. Controls were treated with equivalent DMSO volumes. The cells were treated with compounds for 72 hours (to ensure that all cells experienced at least two S-phases). Post treatment, the cells were washed, treated with the CellTiter-Glo® reagent was added and the plate was analyzed as using a Gen5 (ver2.1) luminosity plate reader. The luminescence that reports on ATP generation by the surviving cells was normalized for the DMSO treated control as 100%. The normalized luminescence (average±standard deviation for at least three independent measurements obtained with different cell passages) was plotted in GraphPad Prism as a function of compound concentration. Clonogenic Survival: EUFA423F and EUFA423F HA cells were seeded in a 96 well plate. Compounds dissolved in DMSO were added to final concentrations of 0, 50, and 100 μM for the compound of Example 8 and the compound of Example 1, and 0, 5, and 10 μM for the compounds of Examples 2-7. The cells were treated with compounds for 72 hours. Post treatment, cell cultures were harvested by collecting all non-adherent cells in the well, trypsinization of all adherent cells, combining, pelleting and then resuspending in fresh media. Cultures treated with DMSO only were subsequently counted using a hemocytometer and plated at a density of 2000, 200 and 20 cells per well in 6-well culture plates, equal volumes of cultures were plated each inhibitor concentration. Each treatment and cell density conditions for both cell lines were plated in triplicate. After expanding the colonies for a period of 8 days, cultures were fixed with a solution of 70% ethanol and crystal violet for clonogenic survival analysis. Pictures of individual wells were taken using GelCount (Version 1.3.0.4) by Oxford Optronix (Abingdon UK). A colony had to contain at least 50 cells to be counted. The number of surviving colonies following treatment are presented as a percentage of number of colonies in the experiment where the cells were treated with DMSO only.

EUFA423F HA cells [2] = assay: as above; details: high concentrations (Z56: 250 μM)
[3] = system: EUFA423F and EUFA423F HA cells; assay: Clonogenic survival assay; details: cells pre-treated 72 hours, colonies after 8 days
Source text: as §1
Cell proliferation assay: Selective toxicity of the compounds towards human BRCA2 deficient cells was tested in EUFA423F and its complement EUFA423F HA using CellTiter-Glo® Luminescent Cell Viability Assay (Promega, Madison, WI). […] Post treatment, the cells were washed, treated with the CellTiter-Glo® reagent was added and the plate was analyzed as using a Gen5 (ver2.1) luminosity plate reader. The luminescence that reports on ATP generation by the surviving cells was normalized for the DMSO treated control as 100%. The normalized luminescence (average±standard deviation for at least three independent measurements obtained with different cell passages) was plotted in GraphPad Prism as a function of compound concentration. […] A colony had to contain at least 50 cells to be counted. […]

| SMILES | toxicity towards EUFA423 HA (BRCA2-complemented cells) (EUFA423F HA cells [1]) | effect on viability/growth of BRCA2-complemented HA cells (EUFA423F HA cells [2]; listed as Z99) | clonogenic survival: confirmation of effect on cell viability [3] | effect on viability/growth of BRCA2-complemented HA cells (EUFA423F HA cells [2]) |
| --- | --- | --- | --- | --- |
| O=C(Cn1cccc([N+](=O)[O-])c1=O)c1c[nH]c2ccccc12 [Example 1] | yes | affected the viability; also recorded: some toxicity towards BRCA2-complemented cells | confirmed |  |
| COc1ccccc1NS(=O)(=O)c1cc(C(=O)O)ccc1C [Example 8] | no |  | confirmed | unaffected |
